{"source": "ChEMBL document CHEMBL5620374", "about": "“Synthesis and bioevaluation of novel stilbene-based derivatives as tubulin/HDAC dual-target inhibitors with potent antitumor activities in vitro and in vivo” (Eur J Med Chem, 2023)", "key": {"[1]": {"test_system": "K562", "assay": "Induction of apoptosis in human K562 cells assessed as late apoptotic cells at 4 nM incubated for 48 hrs by Annexin V/PI staining based flow cytometry (reference value: 3.37 +/- 0.21 %)", "format": "functional"}, "[2]": {"assay": "Toxicity in ICR mouse allografted with mouse H22 cells assessed as toxic sign in spleen at 10 to 20 mg/kg, iv qd for 17 days consecutively by H and E staining based analysis", "format": "organism-based", "conditions": "in vivo, dose 10-20 mg/kg, time 17 day"}, "[3]": {"test_system": "K562", "assay": "Induction of cell cycle arrest at G1 phase in human K562 cells at 8 nM incubated for 48 hrs by PI staining based flow cytometry (reference value: 62.08 +/- 0.40 %)", "format": "functional"}, "[4]": {"test_system": "K562", "assay": "Induction of cell cycle arrest at S phase in human K562 cells at 8 nM incubated for 48 hrs by PI staining based flow cytometry (reference value: 22.56 +/- 0.47 %)", "format": "functional"}, "[5]": {"test_system": "K562", "assay": "Induction of apoptosis in human K562 cells assessed as nuclear fragmentation at 2 to 8 nM incubated for 48 hrs by Hoechst 33342 staining based analysis", "format": "functional, cell-based", "conditions": "dose 2-8 nM"}, "[6]": {"assay": "Toxicity in ICR mouse allografted with mouse H22 cells assessed as toxic sign in liver at 10 to 20 mg/kg, iv qd for 17 days consecutively by H and E staining based analysis", "format": "organism-based", "conditions": "in vivo, dose 10-20 mg/kg, time 17 day"}, "[7]": {"test_system": "K562", "assay": "Induction of cell cycle arrest at G2 phase in human K562 cells at 2 nM incubated for 48 hrs by PI staining based flow cytometry (Rvb =15.36 +/- 0.46 %)", "format": "functional"}, "[8]": {"test_system": "K562", "assay": "Inhibition of mitochondrial membrane potential in human K562 cells assessed as green fluorescence intensity at 4 nM incubated for 48 hrs by JC-1 staining based flow cytometry (reference value: 6.63 +/- 0.27 %)", "format": "functional"}, "[9]": {"target": "T1, Histone deacetylase 1 (Homo sapiens, UniProt Q13547)", "T1 sequence (Q13547 whole entry)": "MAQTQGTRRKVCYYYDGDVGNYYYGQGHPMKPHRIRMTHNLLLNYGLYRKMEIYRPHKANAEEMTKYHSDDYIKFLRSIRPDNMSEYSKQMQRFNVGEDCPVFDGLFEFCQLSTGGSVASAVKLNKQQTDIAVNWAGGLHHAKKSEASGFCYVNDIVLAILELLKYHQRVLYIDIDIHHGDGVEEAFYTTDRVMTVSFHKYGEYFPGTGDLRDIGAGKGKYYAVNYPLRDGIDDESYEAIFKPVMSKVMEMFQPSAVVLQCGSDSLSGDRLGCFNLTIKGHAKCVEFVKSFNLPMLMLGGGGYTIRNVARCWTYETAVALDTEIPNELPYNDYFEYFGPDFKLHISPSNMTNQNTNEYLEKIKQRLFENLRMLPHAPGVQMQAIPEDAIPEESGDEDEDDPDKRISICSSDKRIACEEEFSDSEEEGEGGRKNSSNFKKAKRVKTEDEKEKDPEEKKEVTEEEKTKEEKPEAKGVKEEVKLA", "assay": "Inhibition of HDAC1 in human K562 cells assessed as increase in Acetyl-histone H3 level at 0.01 to 1 uM incubated for 24 hrs by Western blot analysis", "format": "cell-based", "conditions": "dose 0.01-1 µM"}, "[10]": {"target": "T2, Protein deacetylase HDAC6 (Homo sapiens) (UniProt Q9UBN7)", "T2 sequence (whole entry)": "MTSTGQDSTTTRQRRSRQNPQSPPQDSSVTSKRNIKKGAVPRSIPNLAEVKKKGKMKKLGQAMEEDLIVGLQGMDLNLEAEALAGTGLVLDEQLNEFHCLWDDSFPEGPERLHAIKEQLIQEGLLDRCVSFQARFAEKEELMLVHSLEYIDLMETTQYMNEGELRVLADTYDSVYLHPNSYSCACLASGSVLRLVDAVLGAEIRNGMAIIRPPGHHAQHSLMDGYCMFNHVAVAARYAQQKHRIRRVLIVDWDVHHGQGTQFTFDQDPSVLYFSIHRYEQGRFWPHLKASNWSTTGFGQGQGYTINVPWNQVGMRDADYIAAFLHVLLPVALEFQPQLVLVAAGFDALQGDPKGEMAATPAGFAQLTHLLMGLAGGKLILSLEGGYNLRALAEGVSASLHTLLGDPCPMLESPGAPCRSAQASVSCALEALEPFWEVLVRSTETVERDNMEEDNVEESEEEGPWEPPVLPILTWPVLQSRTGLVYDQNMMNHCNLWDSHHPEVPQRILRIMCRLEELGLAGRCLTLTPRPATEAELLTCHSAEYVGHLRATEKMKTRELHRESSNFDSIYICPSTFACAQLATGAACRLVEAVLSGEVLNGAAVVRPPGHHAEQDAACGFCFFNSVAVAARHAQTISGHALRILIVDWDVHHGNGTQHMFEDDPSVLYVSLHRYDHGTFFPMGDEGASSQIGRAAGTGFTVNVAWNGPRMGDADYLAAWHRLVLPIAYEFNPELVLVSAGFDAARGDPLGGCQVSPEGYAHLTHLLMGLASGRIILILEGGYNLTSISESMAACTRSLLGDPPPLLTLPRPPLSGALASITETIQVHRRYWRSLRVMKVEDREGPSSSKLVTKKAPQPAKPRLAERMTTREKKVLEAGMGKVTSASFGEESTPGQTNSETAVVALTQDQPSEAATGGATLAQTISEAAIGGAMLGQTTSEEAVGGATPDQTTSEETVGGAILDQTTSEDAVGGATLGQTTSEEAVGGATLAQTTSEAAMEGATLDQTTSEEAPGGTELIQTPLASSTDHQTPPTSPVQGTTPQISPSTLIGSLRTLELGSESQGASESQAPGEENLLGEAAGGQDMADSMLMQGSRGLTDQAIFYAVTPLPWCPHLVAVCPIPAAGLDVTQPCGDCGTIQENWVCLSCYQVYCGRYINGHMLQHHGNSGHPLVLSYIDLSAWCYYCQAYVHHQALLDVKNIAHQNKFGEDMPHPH", "assay": "Inhibition of HDAC6 in human K562 cells assessed as increase in Acetyl-alpha-tubulin level at 0.01 to 1 uM incubated for 24 hrs by Western blot analysis", "format": "cell-based", "conditions": "dose 0.01-1 µM"}, "[11]": {"test_system": "K562", "assay": "Induction of cell cycle arrest at S phase in human K562 cells at 4 nM incubated for 48 hrs by PI staining based flow cytometry (reference value: 22.56 +/- 0.47 %)", "format": "functional"}, "[12]": {"target": "T1, Histone deacetylase 1", "assay": "Inhibition of HDAC1 derived from human HeLa cell extract using Ac-Leu-Gly-Lys (Ac)-AMC as substrate by fluorescence based assay", "format": "cell-free"}, "[13]": {"test_system": "H22", "assay": "Antiproliferative activity against mouse H22 cells incubated for 72 hrs by MTT assay", "format": "functional, cell-based", "conditions": "H22, 72 h"}, "[14]": {"target": "T3, Histone deacetylase 2 (Homo sapiens, UniProt Q92769)", "T3 sequence (Q92769 whole entry)": "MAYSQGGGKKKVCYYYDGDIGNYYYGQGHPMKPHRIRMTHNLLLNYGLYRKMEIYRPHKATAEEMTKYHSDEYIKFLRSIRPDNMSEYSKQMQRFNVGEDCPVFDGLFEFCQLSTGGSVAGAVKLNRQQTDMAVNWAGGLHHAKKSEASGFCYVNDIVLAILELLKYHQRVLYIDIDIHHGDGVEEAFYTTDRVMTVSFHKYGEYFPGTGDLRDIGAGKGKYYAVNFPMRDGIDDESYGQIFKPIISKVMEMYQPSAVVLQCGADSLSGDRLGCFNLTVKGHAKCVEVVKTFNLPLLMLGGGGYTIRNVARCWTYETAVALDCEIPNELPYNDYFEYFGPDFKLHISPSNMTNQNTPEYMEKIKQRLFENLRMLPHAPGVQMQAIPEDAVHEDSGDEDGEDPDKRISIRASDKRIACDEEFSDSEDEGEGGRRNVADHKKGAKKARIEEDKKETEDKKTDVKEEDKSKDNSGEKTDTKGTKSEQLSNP", "assay": "Inhibition of HDAC2 derived from human HeLa cell extract using Ac-Leu-Gly-Lys (Ac)-AMC as substrate by fluorescence based assay"}, "[15]": {"assay": "Antiproliferative activity against human HFL1 cells incubated for 72 hrs by MTT assay", "format": "toxicity, cell-based"}, "[16]": {"test_system": "K562", "assay": "Induction of apoptosis in human K562 cells assessed as viable cells at 8 nM incubated for 48 hrs by Annexin V/PI staining based flow cytometry (reference value: 92.52 +/- 0.34 %)", "format": "functional", "conditions": "read-out: Activity"}, "[17]": {"target": "T3, Histone deacetylase 2", "assay": "Inhibition of HDAC2 in human K562 cells assessed as increase in Acetyl-histone H3 level at 0.01 to 1 uM incubated for 24 hrs by Western blot analysis", "format": "cell-based", "conditions": "dose 0.01-1 µM"}, "[18]": {"test_system": "K562", "assay": "Inhibition of mitochondrial membrane potential in human K562 cells assessed as green fluorescence intensity at 2 nM incubated for 48 hrs by JC-1 staining based flow cytometry (reference value: 6.63 +/- 0.27 %)", "format": "functional"}, "[19]": {"test_system": "K562", "assay": "Induction of apoptosis in human K562 cells assessed as decrease in Bcl-xL level incubated for 24 hrs by Western blot analysis", "format": "functional, cell-based", "conditions": "dose 2-8 nM"}, "[20]": {"test_system": "K562", "assay": "Induction of apoptosis in human K562 cells assessed as late apoptotic cells at 2 nM incubated for 48 hrs by Annexin V/PI staining based flow cytometry (reference value: 3.37 +/- 0.21 %)", "format": "functional"}, "[21]": {"test_system": "K562", "assay": "Induction of cell cycle arrest at G2 phase in human K562 cells at 8 nM incubated for 48 hrs by PI staining based flow cytometry (Rvb =15.36 +/- 0.46 %)", "format": "functional"}, "[22]": {"test_system": "K562", "assay": "Antiproliferative activity against human K562 cells incubated for 72 hrs by MTT assay", "format": "functional, cell-based", "conditions": "K562, 72 h"}}, "note": "Calls of active or inactive are those of the source. No cut-off for these calls is given here.", "data": [{"smiles": "C=C(c1ccc(OC)c(OC(F)C(=O)NO)c1)c1cc(C)nc2ccccc12", "note": "(configuration not stated)", "values": [{"measurement": "Activity", "setting": "[1]", "value": 8.7, "unit": "%"}, {"measurement": "Activity", "setting": "[2]", "value": "Non-Toxic"}, {"measurement": "Activity", "setting": "[3]", "value": 41.72, "unit": "%"}, {"measurement": "Activity", "setting": "[4]", "value": 30.41, "unit": "%"}, {"measurement": "Activity", "setting": "[5]", "value": "Active"}, {"measurement": "Activity", "setting": "[6]", "value": "Non-Toxic"}, {"measurement": "Activity", "setting": "[7]", "value": 20.48, "unit": "%"}, {"measurement": "Flu intensity", "setting": "[8]", "value": 31.75, "unit": "%"}, {"measurement": "inhibition", "setting": "[9]", "value": "Active"}, {"measurement": "inhibition", "setting": "[10]", "value": "Active"}, {"measurement": "Activity", "setting": "[11]", "value": 26.6, "unit": "%"}, {"measurement": "IC50", "setting": "[12]", "value": 0.403, "unit": "µM"}, {"measurement": "IC50", "setting": "[13]", "value": 0.008, "unit": "µM"}, {"measurement": "IC50", "setting": "[14]", "value": 0.591, "unit": "µM"}, {"measurement": "IC50 at 72 h", "setting": "[15]", "value": 0.23, "unit": "µM"}, {"measurement": "viability at 0.008 µM", "setting": "[16]", "value": 52.6, "unit": "%"}, {"measurement": "inhibition", "setting": "[17]", "value": "Active"}, {"measurement": "Flu intensity", "setting": "[18]", "value": 17.63, "unit": "%"}, {"measurement": "Activity", "setting": "[19]", "value": "Dose-Dependent Effect"}, {"measurement": "Activity", "setting": "[20]", "value": 3.94, "unit": "%"}, {"measurement": "Activity", "setting": "[21]", "value": 27.87, "unit": "%"}, {"measurement": "IC50", "setting": "[22]", "value": 0.003, "unit": "µM"}]}]}
